In article PMC11213733, “Computational approaches identify a transcriptomic fingerprint of drug-induced structural cardiotoxicity” (Cell Biology and Toxicology, 2024):
Structures can show the parent of a compound that is named as a salt.

Tests used:
cardiac microtissues [1] = assay: Ingenuity Pathway Analysis over-representation of differentially expressed genes (activation Z-score); format: cell-based, human; settings: 48hr high; Group 1
[2] = ref FDA label, cited from earlier work; for Structural cardiotoxin?: FDA label references heart failure or a decrease in left ventricular ejection fraction; for Functional cardiotoxin?: compound annotation
cardiac microtissues [3] = assay: Transcriptomic profiling (mRNA-seq) and DESeq2 differential gene expression analysis in cardiac microtissues; settings: absolute log2(Fold-Change) > 1, FDR p ≤ 0.05; for number of significant differentially expressed genes, 6hr high / number of significant differentially expressed genes, 48hr high / number of significant differentially expressed genes, 72hr high: high concentration; for number of significant differentially expressed genes, 6hr low / number of significant differentially expressed genes, 48hr low / number of significant differentially expressed genes, 72hr low: low concentration

Structure (SMILES): C#Cc1cccc(Nc2ncnc3cc(OCCOC)c(OCCOC)cc23)c1 [Erlotinib]
- activation Z-score: Cardiac Hypertrophy Signaling (cardiac microtissues [1]): -2.236
- activation Z-score: Cell Cycle Control of Chromosomal Replication (cardiac microtissues [1]): -3.742
- activation Z-score: Cell Cycle Regulation by BTG Family Proteins (cardiac microtissues [1]): -2
- activation Z-score: Cyclins and Cell Cycle Regulation (cardiac microtissues [1]): -2.111
- activation Z-score: D-myo-inositol-5-phosphate Metabolism (cardiac microtissues [1]): -2.449
- activation Z-score: DNA Methylation and Transcriptional Repression Signaling (cardiac microtissues [1]): -2.646
- activation Z-score: Estrogen-mediated S-phase Entry (cardiac microtissues [1]): -2.121
- activation Z-score: Factors Promoting Cardiogenesis in Vertebrates (cardiac microtissues [1]): -0.816
- activation Z-score: G-Protein Coupled Receptor Signaling (cardiac microtissues [1]): -2.357
- activation Z-score: GP6 Signaling Pathway (cardiac microtissues [1]): -1.633
- activation Z-score: Glioma Invasiveness Signaling (cardiac microtissues [1]): -2
- activation Z-score: HIF1Î± Signaling (cardiac microtissues [1]): -2.121
- activation Z-score: HMGB1 Signaling (cardiac microtissues [1]): -2.236
- activation Z-score: Hepatic Fibrosis Signaling Pathway (cardiac microtissues [1]): -2.138
- activation Z-score: ILK Signaling (cardiac microtissues [1]): -1.134
- activation Z-score: Insulin Secretion Signaling Pathway (cardiac microtissues [1]): -2.121
- activation Z-score: Integrin Signaling (cardiac microtissues [1]): -2.449
- activation Z-score: Kinetochore Metaphase Signaling Pathway (cardiac microtissues [1]): -3.402
- activation Z-score: Mitotic Roles of Polo-Like Kinase (cardiac microtissues [1]): -2.309
- activation Z-score: Protein Kinase A Signaling (cardiac microtissues [1]): -1.155
- activation Z-score: Pyridoxal 5'-phosphate Salvage Pathway (cardiac microtissues [1]): -2.646
- activation Z-score: RHOGDI Signaling (cardiac microtissues [1]): 1.89
- activation Z-score: Regulation Of The Epithelial Mesenchymal Transition By Growth Factors Pathway (cardiac microtissues [1]): -2.449
- activation Z-score: Role of NFAT in Cardiac Hypertrophy (cardiac microtissues [1]): -2
- activation Z-score: Salvage Pathways of Pyrimidine Ribonucleotides (cardiac microtissues [1]): -2.828
- activation Z-score: Senescence Pathway (cardiac microtissues [1]): 0.728
- activation Z-score: Sphingosine-1-phosphate Signaling (cardiac microtissues [1]): -2
- activation Z-score: Superpathway of Inositol Phosphate Compounds (cardiac microtissues [1]): -2.449
- activation Z-score: Thrombin Signaling (cardiac microtissues [1]): -2.236
- activation Z-score: White Adipose Tissue Browning Pathway (cardiac microtissues [1]): -1.633
- activation Z-score: Wound Healing Signaling Pathway (cardiac microtissues [1]): -2.111
- activation Z-score: cAMP-mediated signaling (cardiac microtissues [1]): -1.633
- activation Z-score: tRNA Charging (cardiac microtissues [1]): 2.646
- Structural cardiotoxin? [2]: N
- Functional cardiotoxin? [2]: Y
- number of significant differentially expressed genes, 6hr high (cardiac microtissues [3]): 56
- number of significant differentially expressed genes, 6hr low (cardiac microtissues [3]): 39
- number of significant differentially expressed genes, 48hr high (cardiac microtissues [3]): 634
- number of significant differentially expressed genes, 48hr low (cardiac microtissues [3]): 152
- number of significant differentially expressed genes, 72hr high (cardiac microtissues [3]): 283
- number of significant differentially expressed genes, 72hr low (cardiac microtissues [3]): 78

Structure (SMILES): O=c1[nH]cc(F)c(=O)[nH]1 [Fluorouracil]
- activation Z-score: BER (Base Excision Repair) Pathway (cardiac microtissues [1]): -2.236
- activation Z-score: Cell Cycle Control of Chromosomal Replication (cardiac microtissues [1]): -4.359
- activation Z-score: Cell Cycle Regulation by BTG Family Proteins (cardiac microtissues [1]): -1.342
- activation Z-score: Cyclins and Cell Cycle Regulation (cardiac microtissues [1]): -2.714
- activation Z-score: DNA Methylation and Transcriptional Repression Signaling (cardiac microtissues [1]): -1.414
- activation Z-score: Estrogen-mediated S-phase Entry (cardiac microtissues [1]): -2.333
- activation Z-score: G-Protein Coupled Receptor Signaling (cardiac microtissues [1]): -1
- activation Z-score: Kinetochore Metaphase Signaling Pathway (cardiac microtissues [1]): -3.772
- activation Z-score: Mismatch Repair in Eukaryotes (cardiac microtissues [1]): -2
- activation Z-score: Mitotic Roles of Polo-Like Kinase (cardiac microtissues [1]): -2.309
- activation Z-score: NER (Nucleotide Excision Repair, Enhanced Pathway) (cardiac microtissues [1]): -1.414
- activation Z-score: Protein Kinase A Signaling (cardiac microtissues [1]): 2
- activation Z-score: Pyridoxal 5'-phosphate Salvage Pathway (cardiac microtissues [1]): -1.89
- activation Z-score: RHOGDI Signaling (cardiac microtissues [1]): 2
- activation Z-score: Salvage Pathways of Pyrimidine Ribonucleotides (cardiac microtissues [1]): -2.121
- activation Z-score: Senescence Pathway (cardiac microtissues [1]): 2.324
- activation Z-score: Superpathway of Inositol Phosphate Compounds (cardiac microtissues [1]): -0.447
- Structural cardiotoxin? [2]: Y
- Functional cardiotoxin? [2]: Y
- number of significant differentially expressed genes, 6hr high (cardiac microtissues [3]): 0
- number of significant differentially expressed genes, 6hr low (cardiac microtissues [3]): 0
- number of significant differentially expressed genes, 48hr high (cardiac microtissues [3]): 401
- number of significant differentially expressed genes, 48hr low (cardiac microtissues [3]): 1
- number of significant differentially expressed genes, 72hr high (cardiac microtissues [3]): 366
- number of significant differentially expressed genes, 72hr low (cardiac microtissues [3]): 200

Structure (SMILES): CC(=O)[C@]1(O)Cc2c(O)c3c(c(O)c2[C@@H](O[C@H]2C[C@H](N)[C@H](O)[C@H](C)O2)C1)C(=O)c1ccccc1C3=O [Idarubicin HCl]
- activation Z-score: Acute Phase Response Signaling (cardiac microtissues [1]): -0.816
- activation Z-score: Apelin Liver Signaling Pathway (cardiac microtissues [1]): -0.707
- activation Z-score: BER (Base Excision Repair) Pathway (cardiac microtissues [1]): -2.333
- activation Z-score: Cardiac Hypertrophy Signaling (cardiac microtissues [1]): -1.732
- activation Z-score: Cardiomyocyte Differentiation via BMP Receptors (cardiac microtissues [1]): -2.236
- activation Z-score: Cell Cycle Control of Chromosomal Replication (cardiac microtissues [1]): -3.71
- activation Z-score: Cell Cycle Regulation by BTG Family Proteins (cardiac microtissues [1]): -1.342
- activation Z-score: Cyclins and Cell Cycle Regulation (cardiac microtissues [1]): -1.941
- activation Z-score: D-myo-inositol-5-phosphate Metabolism (cardiac microtissues [1]): 0.258
- activation Z-score: DNA Methylation and Transcriptional Repression Signaling (cardiac microtissues [1]): -0.535
- activation Z-score: Estrogen-mediated S-phase Entry (cardiac microtissues [1]): -1.897
- activation Z-score: Factors Promoting Cardiogenesis in Vertebrates (cardiac microtissues [1]): -2.117
- activation Z-score: G-Protein Coupled Receptor Signaling (cardiac microtissues [1]): 0.53
- activation Z-score: GP6 Signaling Pathway (cardiac microtissues [1]): 0.378
- activation Z-score: Glioma Invasiveness Signaling (cardiac microtissues [1]): -0.632
- activation Z-score: HIF1Î± Signaling (cardiac microtissues [1]): 0.209
- activation Z-score: HMGB1 Signaling (cardiac microtissues [1]): -0.577
- activation Z-score: Hepatic Fibrosis Signaling Pathway (cardiac microtissues [1]): -1.508
- activation Z-score: ILK Signaling (cardiac microtissues [1]): -3
- activation Z-score: Insulin Secretion Signaling Pathway (cardiac microtissues [1]): -0.192
- activation Z-score: Integrin Signaling (cardiac microtissues [1]): -1.877
- activation Z-score: Kinetochore Metaphase Signaling Pathway (cardiac microtissues [1]): -2.556
- activation Z-score: Mismatch Repair in Eukaryotes (cardiac microtissues [1]): -2.333
- activation Z-score: Mitotic Roles of Polo-Like Kinase (cardiac microtissues [1]): -1.604
- activation Z-score: NER (Nucleotide Excision Repair, Enhanced Pathway) (cardiac microtissues [1]): -2.183
- activation Z-score: Nitric Oxide Signaling in the Cardiovascular System (cardiac microtissues [1]): 0.775
- activation Z-score: Protein Kinase A Signaling (cardiac microtissues [1]): 0.302
- activation Z-score: Pyridoxal 5'-phosphate Salvage Pathway (cardiac microtissues [1]): -1
- activation Z-score: RHOGDI Signaling (cardiac microtissues [1]): 0.816
- activation Z-score: Regulation Of The Epithelial Mesenchymal Transition By Growth Factors Pathway (cardiac microtissues [1]): -1.147
- activation Z-score: Role of NFAT in Cardiac Hypertrophy (cardiac microtissues [1]): -1.512
- activation Z-score: SPINK1 General Cancer Pathway (cardiac microtissues [1]): 2.333
- activation Z-score: Salvage Pathways of Pyrimidine Ribonucleotides (cardiac microtissues [1]): -1
- activation Z-score: Senescence Pathway (cardiac microtissues [1]): 1.768
- activation Z-score: Sphingosine-1-phosphate Signaling (cardiac microtissues [1]): 0
- activation Z-score: Superpathway of Inositol Phosphate Compounds (cardiac microtissues [1]): 0.894
- activation Z-score: Thrombin Signaling (cardiac microtissues [1]): -0.471
- activation Z-score: White Adipose Tissue Browning Pathway (cardiac microtissues [1]): -2.449
- activation Z-score: Wound Healing Signaling Pathway (cardiac microtissues [1]): -0.164
- activation Z-score: cAMP-mediated signaling (cardiac microtissues [1]): 0
- Structural cardiotoxin? [2]: Y
- Functional cardiotoxin? [2]: Y
- number of significant differentially expressed genes, 6hr high (cardiac microtissues [3]): 24
- number of significant differentially expressed genes, 6hr low (cardiac microtissues [3]): 12
- number of significant differentially expressed genes, 48hr high (cardiac microtissues [3]): 2838
- number of significant differentially expressed genes, 48hr low (cardiac microtissues [3]): 578
- number of significant differentially expressed genes, 72hr high (cardiac microtissues [3]): 1616
- number of significant differentially expressed genes, 72hr low (cardiac microtissues [3]): 864
